Results reported in patent US8771665B2 (Cocrystal Discovery, Inc., priority 2010, dated 2014).

Biological target: T1, HCV1b NS5B polymerase delta 21 (Hepatitis C virus genotype 1b, UniProt P26663)
T1 construct: purified HCV1b NS5B polymerase delta 21
Assay: RNA-Dependent RNA HCV NS5B (Polymerase) Assay and IC50 Determination
Format: biochemical
Description: RNA-Dependent RNA HCV NS5B (Polymerase) Assay and IC50 Determination
In vitro RNA-dependent RNA polymerase activity was determined in a reaction mixture (50 μL) containing 50 mM Tris-HCl, pH 7.5, 5 mM MgCl2, 1 mM dithiothreitol, 0.5% Triton® X-100, 10 μM of UTP, 0.1-0.5 μCi of α-^32P UTP (Perkin Elmer Life Sciences), 1 μg of polyA:U16 (Midland Oligo), and 0.6 μg of purified HCV1b NS5B polymerase delta 21. Different concentrations of compounds were added to the reaction mixtures. The reaction was carried out at RT (23° C.) for 60 min and then stopped by the addition of 100 μL of 50 mM EDTA. The reaction mixtures were filtered through either a DE81 membrane or a positively charged nylon membrane, and the membranes were then extensively washed with 30 mM sodium citrate, pH 7.0 and 300 mM NaCl. The radiolabeled RNA products were quantitated using a Storm™ Phosphorlmager™ (GE Life Sciences). IC50 values were calculated using GraFit 6 and GraphPad Prism 5 from triplicate assays.

T1 sequence (P26663 2420-2989): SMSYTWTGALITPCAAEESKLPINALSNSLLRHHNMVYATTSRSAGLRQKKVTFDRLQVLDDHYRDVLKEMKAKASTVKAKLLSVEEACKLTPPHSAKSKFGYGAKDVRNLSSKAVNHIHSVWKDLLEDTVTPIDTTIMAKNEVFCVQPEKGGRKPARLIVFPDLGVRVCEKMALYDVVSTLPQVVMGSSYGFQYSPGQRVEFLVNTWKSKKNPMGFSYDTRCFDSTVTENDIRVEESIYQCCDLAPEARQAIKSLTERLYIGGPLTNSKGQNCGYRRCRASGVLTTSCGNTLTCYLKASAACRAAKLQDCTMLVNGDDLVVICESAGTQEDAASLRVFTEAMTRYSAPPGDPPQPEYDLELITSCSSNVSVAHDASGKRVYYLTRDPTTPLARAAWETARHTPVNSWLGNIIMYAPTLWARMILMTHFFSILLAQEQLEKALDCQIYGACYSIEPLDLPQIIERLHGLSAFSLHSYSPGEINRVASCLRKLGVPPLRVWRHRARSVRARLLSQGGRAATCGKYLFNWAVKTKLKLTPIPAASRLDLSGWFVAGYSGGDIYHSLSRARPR

Structure (SMILES) | IC50 [µM]
CC1CCC(C2=C(c3cc(I)sc3C(=O)O)CCN(C)C2)CC1 (centres unmarked) [Example 002, 5-Iodo-3-[1-methyl-5-(4-methyl-cyclohexyl)-1,2,3,6-tetrahydro-pyridin-4-yl]-thiophene-2-carboxylic acid] | > 10
CC1CCC(C2=C(c3cc(-c4ccc(N)cc4)sc3C(=O)O)CCN(C)C2)CC1 (centres unmarked) [Example 004, 5-(4-Amino-phenyl)-3-[1-methyl-5-(4-methyl-cyclohexyl)-1,2,3,6-tetrahydro-pyridin-4-yl]-thiophene-2-carboxylic acid] | < 3
CC1CCC(C2=C(c3cc(-c4ccccc4)sc3C(=O)O)CCN(CC3CC3)C2)CC1 (centres unmarked) [Example 006, 3-[1-Cyclopropylmethyl-5-(4-methyl-cyclohexyl)-1,2,3,6-tetrahydro-pyridin-4-yl]-5-phenyl-thiophene-2-carboxylic acid] | < 3
CCCCN1CCC(c2cc(-c3ccccc3)sc2C(=O)O)=C(C2CCC(C)CC2)C1 (centres unmarked) [Example 007, 3-[1-Butyl-5-(4-methyl-cyclohexyl)-1,2,3,6-tetrahydro-pyridin-4-yl]-5-phenyl-thiophene-2-carboxylic acid] | < 3
CC1CCC(C2=C(c3cc(-c4ccccc4)sc3C(=O)O)CCN(CCCO)C2)CC1 (centres unmarked) [Example 008, 3-[1-(3-Hydroxy-propyl)-5-(4-methyl-cyclohexyl)-1,2,3,6-tetrahydro-pyridin-4-yl]-5-phenyl-thiophene-2-carboxylic acid] | < 3
CC1CCC(C2=C(c3cc(-c4ccccc4)sc3C(=O)O)CCN(C(C)C)C2)CC1 (centres unmarked) [Example 009, 3-[1-Isopropyl-5-(4-methyl-cyclohexyl)-1,2,3,6-tetrahydro-pyridin-4-yl]-5-phenyl-thiophene-2-carboxylic acid] | 3 to 10
CC1CCC(C2=C(c3cc(C#Cc4ccccc4)sc3C(=O)O)CCN(C)C2)CC1 (centres unmarked) [Example 010, 3-[1-Methyl-5-(4-methyl-cyclohexyl)-1,2,3,6-tetrahydro-pyridin-4-yl]-5-phenylethynyl-thiophene-2-carboxylic acid] | > 10
CC1CCC(C2=C(c3cc(C#CC(C)(C)O)sc3C(=O)O)CCN(C)C2)CC1 (centres unmarked) [Example 011, 5-(3-Hydroxy-3-methyl-but-1-ynyl)-3-[1-methyl-5-(4-methyl-cyclohexyl)-1,2,3,6-tetrahydro-pyridin-4-yl]-thiophene-2-carboxylic acid] | < 3
CC1CCC(C2=C(c3cc(-c4ccc(NC(=O)OC(C)(C)C)cc4)sc3C(=O)O)CCN(C)C2)CC1 (centres unmarked) [Example 012, 5-(4-tert-Butoxycarbonylamino-phenyl)-3-[1-methyl-5-(4-methyl-cyclohexyl)-1,2,3,6-tetrahydro-pyridin-4-yl]-thiophene-2-carboxylic acid] | > 10
COC(=O)c1sc(-c2ccc(NC(=O)c3cscn3)cc2)cc1C1=C(C2CCC(C)CC2)CN(C)CC1 (centres unmarked) [Example 013A] | < 3
CCN1CCC(c2cc(C#CC(C)(C)C)sc2C(=O)O)=C(C2CCC(C)CC2)C1 (centres unmarked) [Example 014, 5-(3,3-Dimethyl-but-1-ynyl)-3-[1-ethyl-5-(4-methyl-cyclohexyl)-1,2,3,6-tetrahydro-pyridin-4-yl]-thiophene-2-carboxylic acid] | < 3
CCN1CCC(c2cc(-c3ccc(-c4cc5ncccn5n4)cc3)sc2C(=O)O)=C(C2CCC(C)CC2)C1 (centres unmarked) [Example 015, 3-[1-Ethyl-5-(4-methyl-cyclohexyl)-1,2,3,6-tetrahydro-pyridin-4-yl]-5-(4-pyrazolo[1,5-a]pyrimidin-2-yl-phenyl)-thiophene-2-carboxylic acid] | < 3
CCN1CCC(c2cc(C#CC3CCCCC3)sc2C(=O)O)=C(C2CCC(C)CC2)C1 (centres unmarked) [Example 016, 5-Cyclohexylethynyl-3-[1-ethyl-5-(4-methyl-cyclohexyl)-1,2,3,6-tetrahydro-pyridin-4-yl]-thiophene-2-carboxylic acid] | > 10
CCN1CCC(c2cc(C#CC3CC3)sc2C(=O)O)=C(C2CCC(C)CC2)C1 (centres unmarked) [Example 017, 5-Cyclopropylethynyl-3-[1-ethyl-5-(4-methyl-cyclohexyl)-1,2,3,6-tetrahydro-pyridin-4-yl]-thiophene-2-carboxylic acid] | < 3
CCN1CCC(c2cc(-c3ccc(NC(C)=O)cc3)sc2C(=O)O)=C(C2CCC(C)CC2)C1 (centres unmarked) [Example 018, 5-(4-Acetylamino-phenyl)-3-[1-ethyl-5-(4-methyl-cyclohexyl)-1,2,3,6-tetrahydro-pyridin-4-yl]-thiophene-2-carboxylic acid] | 3 to 10
CCN1CCC(c2cc(-c3ccc(NC(=O)c4cscn4)cc3)sc2C(=O)O)=C(C2CCC(C)CC2)C1 (centres unmarked) [Example 019, 3-[1-Ethyl-5-(4-methyl-cyclohexyl)-1,2,3,6-tetrahydro-pyridin-4-yl]-5-{4-[(thiazole-4-carbonyl)-amino]-phenyl}-thiophene-2-carboxylic acid] | < 3
CCN1CCC(c2cc(-c3ccc(NC(=O)c4ccccc4)cc3)sc2C(=O)O)=C(C2CCC(C)CC2)C1 (centres unmarked) [Example 020, 5-(4-Benzoylamino-phenyl)-3-[1-ethyl-5-(4-methyl-cyclohexyl)-1,2,3,6-tetrahydro-pyridin-4-yl]-thiophene-2-carboxylic acid] | 3 to 10
CCN1CCC(c2cc(C#CC(C)(C)N)sc2C(=O)O)=C(C2CCC(C)CC2)C1 (centres unmarked) [Example 021, 5-(3-Amino-3-methyl-but-1-ynyl)-3-[1-ethyl-5-(4-methyl-cyclohexyl)-1,2,3,6-tetrahydro-pyridin-4-yl]-thiophene-2-carboxylic acid] | < 3
CCN1CCC(c2cc(C#CC(C)(C)NC(=O)c3cscn3)sc2C(=O)O)=C(C2CCC(C)CC2)C1 (centres unmarked) [Example 022, 3-[1-Ethyl-5-(4-methyl-cyclohexyl)-1,2,3,6-tetrahydro-pyridin-4-yl]-5-{3-methyl-3-[(thiazole-4-carbonyl)-amino]-but-1-ynyl}-thiophene-2-carboxylic acid] | > 10
CCN1CCC(c2cc(C#CC(C)(C)N(C)C)sc2C(=O)O)=C(C2CCC(C)CC2)C1 (centres unmarked) [Example 023, 5-(3-Dimethylamino-3-methyl-but-1-ynyl)-3-[1-ethyl-5-(4-methyl-cyclohexyl)-1,2,3,6-tetrahydro-pyridin-4-yl]-thiophene-2-carboxylic acid] | < 3
CCN1CCC(c2cc(-c3cccc(NC(C)=O)c3)sc2C(=O)O)=C(C2CCC(C)CC2)C1 (centres unmarked) [Example 024, 5-(3-Acetylamino-phenyl)-3-[1-ethyl-5-(4-methyl-cyclohexyl)-1,2,3,6-tetrahydro-pyridin-4-yl]-thiophene-2-carboxylic acid] | > 10
CCN1CCC(c2cc(-c3cccc(NC(=O)c4cscn4)c3)sc2C(=O)O)=C(C2CCC(C)CC2)C1 (centres unmarked) [Example 025, 3-[1-Ethyl-5-(4-methyl-cyclohexyl)-1,2,3,6-tetrahydro-pyridin-4-yl]-5-{3-[(thiazole-4-carbonyl)-amino]-phenyl}-thiophene-2-carboxylic acid] | > 10
CCN1CCC(c2cc(-c3cccc(N)c3)sc2C(=O)O)=C(C2CCC(C)CC2)C1 (centres unmarked) [Example 026, 5-(3-Amino-phenyl)-3-[1-ethyl-5-(4-methyl-cyclohexyl)-1,2,3,6-tetrahydro-pyridin-4-yl]-thiophene-2-carboxylic acid] | 3 to 10
